In US20220324835A1 (Nurix Therapeutics, Inc., priority 2018, published 2022):

Legend:
Cbl-b [1] = target: T1, Cbl-b (Homo sapiens, UniProt Q13191); assay: Cbl-b inhibition assay (Cbl-b activity assay, FRET, Biological Example 1; 100 mM NaCl, 60 nM Src kinase); format: biochemical; conditions: upper bound stated in text lists; read-out: IC50 values in the Cbl-b inhibition assay of Biological Example 1
Method in brief: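 N-terminally biotinylated Avi-tagged Cbl-b was mixed with Src kinase, UbcH5B covalently conjugated to Bodipy-fluorescein ubiquitin, and streptavidin-terbium. Src phosphorylation lets Cbl-b bind UbcH5B-Ub, giving terbium-fluorescein FRET; inhibition is read as loss of FRET signal.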

T-cell [2] = assay: IL-2 secretion from T-cells co-stimulated with anti-CD3 and anti-CD28 antibody (Biological Example 2); format: cell-based, human; conditions: Homo sapiens, T-cell, fold change over baseline (anti-CD3/anti-CD28 stimulated T-cells without inhibitor), read-out: IL-2 secretion Anti-CD3/Anti-CD28 stimulation; for fold induction at 0.3 µM: 0.3 μM Cbl-b inhibitor; for fold induction at 1 µM: 1 μM Cbl-b inhibitor
Method in brief: (§1)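 T-cells were stimulated with anti-CD3 antibody alone or with anti-CD28 antibody, in the presence or absence of Cbl-b inhibitor. IL-2 secretion or CD25 surface staining was measured, and values expressed as fold over the uninhibited baseline […].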

T-cell [3] = assay: IL-2 secretion from T-cells stimulated with anti-CD3 antibody alone (Biological Example 2); format: cell-based, human; conditions: Homo sapiens, T-cell; 1 μM Cbl-b inhibitor; fold change over baseline (anti-CD3/anti-CD28 stimulated T-cells without inhibitor); read-out: IL-2 secretion Anti-CD3 stimulation
T-cell [4] = assay: CD25 cell surface staining on T-cells co-stimulated with anti-CD3 and anti-CD28 antibody (Biological Example 2); format: cell-based, human; conditions: Homo sapiens, T-cell, fold change over baseline (anti-CD3/anti-CD28 stimulated T-cells without inhibitor), read-out: CD25 staining Anti-CD3/Anti-CD28 stimulation; for fold induction at 0.3 µM: 0.3 μM Cbl-b inhibitor; for fold induction at 1 µM: 1 μM Cbl-b inhibitor
Method in brief: as §1

T-cell [5] = assay: CD25 cell surface staining on T-cells stimulated with anti-CD3 antibody alone (Biological Example 2); format: cell-based, human; conditions: Homo sapiens, T-cell; 1 μM Cbl-b inhibitor; fold change over baseline (anti-CD3/anti-CD28 stimulated T-cells without inhibitor); read-out: CD25 staining Anti-CD3 stimulation
Cbl-b [6] = target: T1, Cbl-b; assay: Cbl-b activity assay (Cbl-b inhibition assay), TR-FRET of Cbl-b interaction with UbcH5B-Ub; format: biochemical; conditions: assay buffer with 100 mM NaCl, 60 nM Src kinase; read-out: Cbl-b activity IC50
Method in brief: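 UbcH5B (C85K) conjugated to N-terminally Bodipy-Fluorescein-labeled ubiquitin served as the fluorescent partner. After compound preincubation, Src kinase (60 nM) with 1 mM ATP and 5 mM MgCl2 (final) was added for 1.5 h, followed by a further 1 h incubation. Some values were obtained with 50 mM NaCl and 30 nM Src.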

T1 sequence (Q13191 36-427): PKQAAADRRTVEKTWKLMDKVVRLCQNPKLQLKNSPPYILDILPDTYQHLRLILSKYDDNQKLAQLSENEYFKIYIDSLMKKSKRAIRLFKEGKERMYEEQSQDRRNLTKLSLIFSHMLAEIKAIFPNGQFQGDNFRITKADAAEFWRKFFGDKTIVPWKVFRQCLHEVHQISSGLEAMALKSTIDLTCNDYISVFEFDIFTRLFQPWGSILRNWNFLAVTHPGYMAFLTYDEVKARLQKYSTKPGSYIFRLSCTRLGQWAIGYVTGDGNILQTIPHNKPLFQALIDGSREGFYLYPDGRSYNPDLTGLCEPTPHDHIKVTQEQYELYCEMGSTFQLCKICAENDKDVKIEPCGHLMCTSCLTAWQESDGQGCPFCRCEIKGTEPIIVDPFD

| SMILES | IC50 (Cbl-b [1]) | fold induction at 0.3 µM (T-cell [2]) | fold induction at 1 µM (T-cell [2]) | fold induction at 1 µM (T-cell [3]) | fold induction at 0.3 µM (T-cell [4]) | fold induction at 1 µM (T-cell [4]) | fold induction at 1 µM (T-cell [5]) | IC50 (Cbl-b [6]) |
| --- | --- | --- | --- | --- | --- | --- | --- | --- |
| CCN1CCN(Cc2cc3c(c(C(F)(F)F)c2)CN(c2cccc(C4(Cc5nncn5C)COC4)c2)C3=O)CC1 [Example 624, 6-((4-ethylpiperazin-1-yl)methyl)-2-(3-(3-((4-methyl-4H-1,2,4-triazol-3-yl)methyl)oxetan-3-yl)phenyl)-4-(trifluoromethyl)isoindolin-1-one] | ≤ 100 nM | 5 to 7.5 | > 7.5 | > 0.201 | 1.31 to 1.5 | 1.31 to 1.5 | > 1 | < 100 nM |
| CN1CCN(Cc2cc3c(c(C(F)(F)F)c2)CN(c2cccc(C4(Cc5nncn5C)COC4)c2)C3=O)CC1 [Example 625, 2-(3-(3-((4-methyl-4H-1,2,4-triazol-3-yl)methyl)oxetan-3-yl)phenyl)-6-((4-methylpiperazin-1-yl)methyl)-4-(trifluoromethyl)isoindolin-1-one] | ≤ 100 nM | 2.51 to 5 | > 7.5 | > 0.201 | 1.31 to 1.5 | 1.31 to 1.5 | > 1 | < 100 nM |
| Cn1cnnc1CC1(c2cccc(N3Cc4c(cc(CN5CCCCC(F)C5)cc4C(F)(F)F)C3=O)c2)COC1 (stereo not drawn) [Example 627, 6-((3-fluoroazepan-1-yl)methyl)-2-(3-(3-((4-methyl-4H-1,2,4-triazol-3-yl)methyl)oxetan-3-yl)phenyl)-4-(trifluoromethyl)isoindolin-1-one] | ≤ 100 nM | 5 to 7.5 | > 7.5 | > 0.201 | 1.31 to 1.5 | 1.31 to 1.5 | > 1 | < 100 nM |
| Cn1cnnc1CC1(c2cccc(N3Cc4c(cc(CN5CCC(C#N)CC5)cc4C(F)(F)F)C3=O)c2)COC1 [Example 628, 1-((2-(3-(3-((4-methyl-4H-1,2,4-triazol-3-yl)methyl)oxetan-3-yl)phenyl)-3-oxo-7-(trifluoromethyl)isoindolin-5-yl)methyl)piperidine-4-carbonitrile] | ≤ 100 nM | 5 to 7.5 | > 7.5 | > 0.201 | 1.31 to 1.5 | 1.31 to 1.5 | > 1 | < 100 nM |
| CCOC1CCCN(Cc2cc3c(c(C(F)(F)F)c2)CN(c2cccc(C4(Cc5nncn5C)COC4)c2)C3=O)C1 (stereo not drawn) [Example 629, 6-((3-ethoxypiperidin-1-yl)methyl)-2-(3-(3-((4-methyl-4H-1,2,4-triazol-3-yl)methyl)oxetan-3-yl)phenyl)-4-(trifluoromethyl)isoindolin-1-one] | ≤ 100 nM | > 7.5 | > 7.5 | > 0.201 | 1.51 to 1.75 | 1.51 to 1.75 | > 1 | < 100 nM |
| COC1CCN(Cc2cc3c(c(C(F)(F)F)c2)CN(c2cccc(C4(Cc5nncn5C)COC4)c2)C3=O)CC1 [Example 632, 6-((4-methoxypiperidin-1-yl)methyl)-2-(3-(3-((4-methyl-4H-1,2,4-triazol-3-yl)methyl)oxetan-3-yl)phenyl)-4-(trifluoromethyl)isoindolin-1-one] | ≤ 100 nM | > 7.5 | > 7.5 | > 0.201 | 1.31 to 1.5 | 1.51 to 1.75 | > 1 | < 100 nM |
| Cn1cnnc1CC1(c2cccc(N3Cc4c(cc(CN5CCC(F)(F)CC5)cc4C(F)(F)F)C3=O)c2)COC1 [Example 633, 6-((4,4-difluoropiperidin-1-yl)methyl)-2-(3-(3-((4-methyl-4H-1,2,4-triazol-3-yl)methyl)oxetan-3-yl)phenyl)-4-(trifluoromethyl)isoindolin-1-one] | ≤ 100 nM | > 7.5 | > 7.5 | > 0.201 | 1.31 to 1.5 | 1.31 to 1.5 | > 1 | < 100 nM |
| CC1CCN(Cc2cc3c(c(C(F)(F)F)c2)CN(c2cccc(C4(Cc5nncn5C)COC4)c2)C3=O)CC1(F)F (stereo not drawn) [Example 635, 6-((3,3-difluoro-4-methylpiperidin-1-yl)methyl)-2-(3-(3-((4-methyl-4H-1,2,4-triazol-3-yl)methyl)oxetan-3-yl)phenyl)-4-(trifluoromethyl)isoindolin-1-one] | ≤ 100 nM | > 7.5 | > 7.5 | > 0.201 | 1.31 to 1.5 | 1.31 to 1.5 | > 1 | < 100 nM |
| Cn1cnnc1CC1(c2cccc(N3Cc4c(cc(CN5CCC6(CC6)C(F)(F)C5)cc4C(F)(F)F)C3=O)c2)COC1 [Example 636, 6-((4,4-difluoro-6-azaspiro[2.5]octan-6-yl)methyl)-2-(3-(3-((4-methyl-4H-1,2,4-triazol-3-yl)methyl)oxetan-3-yl)phenyl)-4-(trifluoromethyl)isoindolin-1-one] | ≤ 100 nM | 2.51 to 5 | > 7.5 | > 0.201 | 1.31 to 1.5 | 1.31 to 1.5 | > 1 | < 100 nM |
| COC1CCCN(Cc2cc3c(c(C(F)(F)F)c2)CN(c2cccc(C4(Cc5nncn5C)COC4)c2)C3=O)C1 (stereo not drawn) [Example 637, 6-((3-methoxypiperidin-1-yl)methyl)-2-(3-(3-((4-methyl-4H-1,2,4-triazol-3-yl)methyl)oxetan-3-yl)phenyl)-4-(trifluoromethyl)isoindolin-1-one] | ≤ 100 nM | > 7.5 | > 7.5 | > 0.201 | 1.31 to 1.5 | 1.51 to 1.75 | > 1 | < 100 nM |
| Cn1cnnc1CC1(c2cccc(N3Cc4c(cc(CN5CCC6(CC5)CC6)cc4C(F)(F)F)C3=O)c2)COC1 [Example 641, 6-((6-azaspiro[2.5]octan-6-yl)methyl)-2-(3-(3-((4-methyl-4H-1,2,4-triazol-3-yl)methyl)oxetan-3-yl)phenyl)-4-(trifluoromethyl)isoindolin-1-one] | ≤ 100 nM | > 7.5 | > 7.5 | > 0.201 | 1.51 to 1.75 | 1.51 to 1.75 | > 1 | < 100 nM |
| Cn1cnnc1CC1(c2cccc(N3Cc4c(cc(CN5CCC(C)(C#N)CC5)cc4C(F)(F)F)C3=O)c2)COC1 [Example 642, 4-methyl-1-((2-(3-(3-((4-methyl-4H-1,2,4-triazol-3-yl)methyl)oxetan-3-yl)phenyl)-3-oxo-7-(trifluoromethyl)isoindolin-5-yl)methyl)piperidine-4-carbonitrile] | ≤ 100 nM | > 7.5 | > 7.5 | 0.151 to 0.2 | 1.31 to 1.5 | 1.31 to 1.5 | > 1 | < 100 nM |
